One assay deals with T1, human EHMT2 913-1193 (Homo sapiens, UniProt Q96KQ7).
T1 construct: recombinant purified human EHMT2 913-1193, Viva; purchased Viva
T1 sequence (Q96KQ7 913-1193): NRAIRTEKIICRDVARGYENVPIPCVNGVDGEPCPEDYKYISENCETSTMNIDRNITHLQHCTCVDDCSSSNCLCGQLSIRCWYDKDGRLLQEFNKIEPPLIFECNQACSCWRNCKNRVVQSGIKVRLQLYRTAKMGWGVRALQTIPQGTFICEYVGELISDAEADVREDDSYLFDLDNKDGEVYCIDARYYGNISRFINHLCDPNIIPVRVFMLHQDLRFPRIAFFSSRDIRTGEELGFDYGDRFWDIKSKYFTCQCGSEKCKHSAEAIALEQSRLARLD
Kind of assay: EHMT2 enzyme assay on histone peptide substrate (EHMT2 PEP). The format is biochemical. The following applies: Table III; read-out: EHMT2 PEP (IC50 μM). A digest of the protocol:
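10-pt 3-fold series, 50 μM top final, 2% DMSO; 30 min preinc w/ 0.031 nM enzyme; pH 7.5 Bicine/TCEP buffer; ^3H-SAM + biotin-histone peptide, 60 min RT; SAM quench; streptavidin Flashplate capture, TopCount.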

Another assay has as its target T2, EHMT1 (Homo sapiens, UniProt Q9H9B1).
T2 sequence (Q9H9B1 1-1298): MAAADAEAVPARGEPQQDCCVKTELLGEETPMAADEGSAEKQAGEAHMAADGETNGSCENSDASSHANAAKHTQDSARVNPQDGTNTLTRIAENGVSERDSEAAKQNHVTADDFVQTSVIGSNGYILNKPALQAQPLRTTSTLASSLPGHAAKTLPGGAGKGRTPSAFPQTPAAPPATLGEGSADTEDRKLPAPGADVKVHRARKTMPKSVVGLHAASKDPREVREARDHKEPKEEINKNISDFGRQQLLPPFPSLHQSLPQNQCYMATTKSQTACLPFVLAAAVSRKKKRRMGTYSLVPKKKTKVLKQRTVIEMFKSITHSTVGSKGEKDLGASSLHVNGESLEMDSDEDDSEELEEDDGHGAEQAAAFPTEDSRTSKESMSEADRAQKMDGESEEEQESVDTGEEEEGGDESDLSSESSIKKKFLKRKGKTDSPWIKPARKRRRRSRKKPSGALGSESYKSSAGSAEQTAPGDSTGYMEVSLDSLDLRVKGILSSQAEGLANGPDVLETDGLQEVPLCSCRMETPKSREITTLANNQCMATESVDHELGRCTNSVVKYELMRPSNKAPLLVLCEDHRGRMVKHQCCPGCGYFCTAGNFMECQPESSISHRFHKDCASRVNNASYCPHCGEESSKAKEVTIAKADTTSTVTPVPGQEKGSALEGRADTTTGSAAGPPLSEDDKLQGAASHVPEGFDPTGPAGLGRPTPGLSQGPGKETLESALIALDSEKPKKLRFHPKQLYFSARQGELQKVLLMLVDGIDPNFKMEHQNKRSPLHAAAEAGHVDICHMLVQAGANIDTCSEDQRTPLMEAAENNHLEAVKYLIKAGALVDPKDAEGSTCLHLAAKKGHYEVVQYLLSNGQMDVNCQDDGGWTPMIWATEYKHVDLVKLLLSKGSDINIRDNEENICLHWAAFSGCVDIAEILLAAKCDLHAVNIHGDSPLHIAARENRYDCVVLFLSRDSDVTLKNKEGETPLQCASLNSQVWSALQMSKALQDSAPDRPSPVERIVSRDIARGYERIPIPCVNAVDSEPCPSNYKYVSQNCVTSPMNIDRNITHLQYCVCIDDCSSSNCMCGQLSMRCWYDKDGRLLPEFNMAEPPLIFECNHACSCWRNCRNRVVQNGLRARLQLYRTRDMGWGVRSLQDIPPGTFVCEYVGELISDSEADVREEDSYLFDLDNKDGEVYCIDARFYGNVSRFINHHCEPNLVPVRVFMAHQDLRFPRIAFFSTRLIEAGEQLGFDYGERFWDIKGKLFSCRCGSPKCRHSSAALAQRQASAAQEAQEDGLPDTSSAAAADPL
Kind of assay: EHMT1 enzyme assay on peptide substrate (EHMT1 PEP). The following applies: Table III; read-out: EHMT1 PEP (IC50 μM). It counts as biochemical.

Usually IC50 stands for the midpoint of a concentration-inhibition curve. As to `CNc1cc(C)nc(Nc2ccc(OC)c(OCC3CNC3)c2)n1` [Compound 437, N^2-(3-(azetidin-3-ylmethoxy)-4-methoxyphenyl)-N^4,6-dimethylpyrimidine-2,4-diamine], the half-inhibitory concentration (IC50) on human EHMT2 913-1193 is 0.1 to 1 µM; at EHMT1, under 0.1 µM.

As for `CNc1ccnc(Nc2ccc(OC)c(OCCCN3CCC(OC)C3)c2)n1` (stereo not shown) [Compound 283, N^2-(4-methoxy-3-(3-(3-methoxypyrrolidin-1-yl)propoxy)phenyl)-N^4-methylpyrimidine-2,4-diamine], the IC50 at human EHMT2 913-1193 and on EHMT1 was under 0.1 µM in each case.

Consider `CNc1ccnc(Nc2ccc(OC)c(OCCCN3CCC4(COC4)C3)c2)n1` [Compound 284], for which the IC50 on human EHMT2 913-1193 and at EHMT1 was over 10 µM each time.

Regarding `CNc1ccnc(Nc2ccc(OC)c(OCCCN3CC4CC4C3)c2)n1` (stereo not shown) [Compound 298, N^2-(3-(3-(3-azabicyclo[3.1.0]hexan-3-yl)propoxy)-4-methoxyphenyl)-N^4-methylpyrimidine-2,4-diamine], the IC50 on human EHMT2 913-1193 and on EHMT1 was under 0.1 µM throughout.

As for `CNc1ccnc(Nc2ccc(OC)c(OC[C@H]3CN(C)C[C@@H]3C)c2)n1` (single isomer, unassigned) [Compound 439], the half-maximal inhibitory concentration (IC50) on human EHMT2 913-1193 and at EHMT1 was 0.1 to 1 µM in each case.

For `CNc1cc(C)nc(Nc2ccc(OC)c(OCC3CCN(CC4CC4)CC3)c2)n1` [Compound 436, N^2-(3-((1-(cyclopropylmethyl)piperidin-4-yl)methoxy)-4-methoxyphenyl)-N^4,6-dimethylpyrimidine-2,4-diamine], the results for the IC50 on human EHMT2 913-1193 and at EHMT1 were 1 to 10 µM and over 10 µM, respectively.

Consider `CNc1cc(C)nc(Nc2ccc(OC)c(O[C@H]3C[C@@H](CN(C)C)C3)c2)n1` [Compound 318, N^2-(3-((1s,3s)-3-((dimethylamino)methyl)cyclobutoxy)-4-methoxyphenyl)-N^4,6-dimethylpyrimidine-2,4-diamine], for which the concentration for half-maximal inhibition (IC50) on human EHMT2 913-1193 and at EHMT1 was over 10 µM each time.

Consider `CNc1ccnc(Nc2ccc(OC)c(OC[C@@H](O)CN3CCCC3)c2)n1` [Compound 300, (S)-1-(2-methoxy-5-((4-(methylamino)pyrimidin-2-yl)amino)phenoxy)-3-(pyrrolidin-1-yl)propan-2-ol], for which the IC50 at human EHMT2 913-1193 and at EHMT1 was 0.1 to 1 µM in each case.

`CNc1ccnc(Nc2ccc(OC)c(OCCCN(C)CC3CC3)c2)n1` [Compound 424, N^2-(3-(3-((cyclopropylmethyl)(methyl)amino)propoxy)-4-methoxyphenyl)-N^4-methylpyrimidine-2,4-diamine]: the IC50 on human EHMT2 913-1193 and at EHMT1 was 1 to 10 µM throughout.

`CCN1CC(COc2cc(Nc3nc(C)cc(NC)n3)ccc2OC)C1` [Compound 444]: the IC50 at human EHMT2 913-1193 and at EHMT1 was under 0.1 µM throughout.

Regarding `CNc1cc(C)nc(Nc2ccc(OC)c(OCC3CCN(C4COC4)C3)c2)n1` (stereo not shown) [Compound 449, N^2-(4-methoxy-3-((1-(oxetan-3-yl)pyrrolidin-3-yl)methoxy)phenyl)-N^4,6-dimethylpyrimidine-2,4-diamine], the half-maximal inhibitory concentration (IC50) at human EHMT2 913-1193 and on EHMT1 was 0.1 to 1 µM in each case.

As for `CNc1ccnc(Nc2ccc(OC)c(OCC3CCCN3C)c2)n1` (stereo not shown) [Compound 289, N^2-(4-methoxy-3-((1-methylpyrrolidin-2-yl)methoxy)phenyl)-N^4-methylpyrimidine-2,4-diamine], the IC50 is 0.1 to 1 µM at human EHMT2 913-1193 and under 0.1 µM at EHMT1.

As for `CNc1ccnc(Nc2cccc(N3CCC(N)C3)c2)n1` (stereo not shown) [Compound 297], the half-inhibitory concentration (IC50) on human EHMT2 913-1193 was 1 to 10 µM; at EHMT1, over 10 µM.

For `CNc1ccnc(Nc2ccc(OC)c(OCCOC3CCCC3)c2)n1` [Compound 440, N^2-(3-(2-(cyclopentyloxy)ethoxy)-4-methoxyphenyl)-N^4-methylpyrimidine-2,4-diamine], the IC50 at human EHMT2 913-1193 and on EHMT1 was over 10 µM throughout.

For the compound `CNc1cc(C)nc(Nc2ccc(OC)c(OCC3CCN(C)CC3)c2)n1` [Compound 435, N^2-(4-methoxy-3-((1-methylpiperidin-4-yl)methoxy)phenyl)-N^4,6-dimethylpyrimidine-2,4-diamine], the IC50 on human EHMT2 913-1193 and at EHMT1 was 1 to 10 µM each time.

Turning to `CNc1cc(C)nc(Nc2ccc(OC)c(OC3CCN(CC4CC4)CC3)c2)n1` [Compound 443], the half-inhibitory concentration (IC50) on human EHMT2 913-1193 and at EHMT1 was over 10 µM in each case.

In the case of `CNc1ccnc(Nc2cccc(OCC(F)(F)CN3CCCC3)c2)n1` [Compound 277, N^2-(3-(2,2-difluoro-3-(pyrrolidin-1-yl)propoxy)phenyl)-N^4-methylpyrimidine-2,4-diamine], the IC50 on human EHMT2 913-1193 and on EHMT1 was over 10 µM in each case.

Turning to `CNc1ccnc(Nc2ccc(OC)c(OCc3cc(C4CC4)on3)c2)n1` [Compound 426, N^2-(3-((5-cyclopropylisoxazol-3-yl)methoxy)-4-methoxyphenyl)-N^4-methylpyrimidine-2,4-diamine], the IC50 on human EHMT2 913-1193 and on EHMT1 was over 10 µM throughout.

With `CCNC(=O)c1cc(Nc2nccc(NC)n2)ccn1` [Compound 291, N-ethyl-4-((4-(methylamino)pyrimidin-2-yl)amino)picolinamide], the IC50 at human EHMT2 913-1193 and at EHMT1 was over 10 µM in each case.

As for `COc1ccc(Nc2nc(C)cc(NCC3CCOCC3)n2)cc1OCC1CCN(C)C1` (stereo not shown) [Compound 451, N^2-(4-methoxy-3-((1-methylpyrrolidin-3-yl)methoxy)phenyl)-6-methyl-N^4-((tetrahydro-2H-pyran-4-yl)methyl)pyrimidine-2,4-diamine], the IC50 was 0.1 to 1 µM on human EHMT2 913-1193 and under 0.1 µM at EHMT1.

For `CNc1ccnc(Nc2ccc(OC)c(OCCCN3CCC(C(F)(F)F)C3)c2)n1` (stereo not shown) [Compound 285, N^2-(4-methoxy-3-(3-(3-(trifluoromethyl)pyrrolidin-1-yl)propoxy)phenyl)-N^4-methylpyrimidine-2,4-diamine], the IC50 at human EHMT2 913-1193 and on EHMT1 was over 10 µM throughout.

For `CNc1ccnc(Nc2ccc(OC)c(OCCCN3CCC(O)C3)c2)n1` (stereo not shown) [Compound 286, 1-(3-(2-methoxy-5-((4-(methylamino)pyrimidin-2-yl)amino)phenoxy)propyl)pyrrolidin-3-ol], the values for the IC50 at human EHMT2 913-1193 and on EHMT1 were under 0.1 µM and 0.1 to 1 µM, respectively.

As for `CNc1ccnc(N[C@@H]2CCC[C@H](OCCCN3CCCC3)C2)n1` [Compound 427], the concentration for half-maximal inhibition (IC50) at human EHMT2 913-1193 and on EHMT1 was over 10 µM each time.

In the case of `CNc1ccnc(Nc2cccc(C(C)OCCN3CCCC3)c2)n1` (stereo not shown) [Compound 279, N^4-methyl-N^2-(3-(1-(2-(pyrrolidin-1-yl)ethoxy)ethyl)phenyl) pyrimidine-2,4-diamine], the IC50 on human EHMT2 913-1193 and on EHMT1 was over 10 µM in each case.

In the case of `CNc1cc(Nc2cc(OCCCN3CCCC3)c(OC)cn2)cc(C)n1` [Compound 308, N^4-(5-methoxy-4-(3-(pyrrolidin-1-yl)propoxy)pyridin-2-yl)-N^2,6-dimethylpyridine-2,4-diamine], the half-maximal inhibitory concentration (IC50) at human EHMT2 913-1193 and at EHMT1 was 0.1 to 1 µM throughout.

Regarding `CCN(CC)CCCOc1cc(Nc2nccc(NC)n2)ccc1OC` [Compound 280, N^2-(3-(3-(diethylamino)propoxy)-4-methoxyphenyl)-N^4-methylpyrimidine-2,4-diamine], the IC50 at human EHMT2 913-1193 and on EHMT1 was 1 to 10 µM throughout.

The values above are taken from patent US20210198277A1, “AMINE-SUBSTITUTED ARYL OR HETEROARYL COMPOUNDS” (Epizyme, Inc., priority 2016, published 2021).
